Measured values from paper PMC9856044 (Biomolecules, 2023).

Legend:
MDA-MB-435S cells = test: MTT cytotoxicity assay, MDA-MB-435S; type: cell-based; settings: Homo sapiens, 72 h incubation, ± SD
Protocol: (§1) Human cervical carcinoma HeLa (GIBCO BRL, Invitrogen, Waltham, MA, USA), human melanoma MDA-MB-435S and human ovarian adenocarcinoma SK-OV-3 (ATCC-LGC Standards GmbH, Wesel, Germany) cell lines were purchased from indicated cell culture banks. Normal human skin fibroblasts were isolated from the upper arm of a donor at the Neurochemical Laboratory, Department of Chemistry and Biochemistry, School of Medicine, University of Zagreb. HeLa, MDA-MB-435S and fibroblasts were grown in Dulbecco’s Modified Eagle’s Medium (DMEM; Sigma-Aldrich, St. Louis, MI, USA) while the SK-OV-3 cell line was grown in McCoy’s 5A medium (Capricorn Scientific, Ebsdorfergrund, Germany). All media were supplemented with 10% fetal bovine serum (FBS; Sigma-Aldrich) and 50 I.U./mL penicillin and 50 μg/mL streptomycin. Cells were cultured in a humidified atmosphere of 5% CO2 at 37 °C and were sub-cultured every 3–4 days. HeLa, MDA-MB-435S, SK-OV-3 cells and fibroblasts were seeded in 96 well plates. Twenty-four hours later the cells were treated, in quadruplicate, with different concentrations of compounds (dissolved in DMSO, kept at 4 °C and protected from light). Following 72 h of incubation at 37 °C, the medium was aspired and modified 3-(4,5-dimethylthiazol-2-yl)-2,5-diphenyltetrazolium bromide (MTT) assay was used to determine the cytotoxic effect of the tested compounds. Three hours later, formazan crystals were dissolved in DMSO (0.17 mL/well), the plates were mechanically agitated for 20 min and the optical density at 600 nm was determined on a microtiter plate reader (Awareness Technology Inc., Palm City, FL, USA). The experiments were repeated three times.

HeLa cells = test: MTT cytotoxicity assay, HeLa; type: cell-based; settings: Homo sapiens, 72 h incubation, ± SD
Protocol: as §1

[1] = target: Tel22 (5′-AGGG(TTAGGG)3–3′) G-quadruplex; test: Fluorimetric titration with Tel22 in potassium phosphate buffer (K+ solution); type: binding, human
Protocol: (§2) Materials. Polynucleotides were purchased as noted: poly A–poly U, calf thymus ctDNA, poly(dAdT)2 and poly(dGdC)2 (Sigma-Aldrich, St. Louis, MI, USA). Polynucleotides were dissolved in Na-cacodylate buffer, I = 0.05 mol dm^−3, pH = 7.0. The calf thymus ctDNA was additionally sonicated and filtered through a […]. Polynucleotide concentration was determined spectroscopically as the concentration of phosphates. Spectrophotometric titrations were performed at pH = 7.0 (I = 0.05 mol dm^−3, sodium cacodylate buffer) by adding aliquots of polynucleotide solution into the solution of the studied compound for fluorimetric experiments and CD experiments were done by adding aliquots of the compound stock solution into the solution of a polynucleotide. In fluorimetric experiments, an excitation wavelength of λexc = 425, 431, 423, 427, 406 and 407 nm, respectively, was used to avoid the inner filter effect caused due to increasing absorbance of the polynucleotide. Emission was collected in the range λem = 400–700 nm. Values for Ka obtained by processing titration data using the Scatchard equation [27], all have satisfactory correlation coefficients (≥0.98).
(§3) Thermal melting curves for DNA, RNA and their complexes with studied compounds were determined as previously described by following the absorption change at 260 nm as a function of temperature. The absorbance of the ligands was subtracted from every curve and the absorbance scale was normalized. Tm values are the midpoints of the transition curves determined from the maximum of the first derivative and checked graphically by the tangent method. The ∆Tm values were calculated by subtracting Tm of the free nucleic acid from Tm of the complex. Every ∆Tm value here reported was the average of two measurements. The error in ∆Tm is ±0.5 °C. 5′-AGGG(TTAGGG)3–3′(Tel22) was obtained from IDT (Integrated DNA Technologies, Coralville, IA, USA). Tel22 was dissolved in 0.1 M either in sodium cacodylate or potassium phosphate buffer. The starting Tel22 oligonucleotide solution was first heated up to 95 °C for 10 min, then slowly cooled to 10 °C at the cooling rate of 1 °C/min to allow DNA oligonucleotide to adopt a G-quadruplex structure. The G-quadruplex structure was confirmed by thermal melting and CD spectra. The concentration of G quadruplex was expressed in terms of oligonucleotide structure. In fluorimetric titrations, aliquots of Tel 22 solution were added to the solution of ligands (c ~ 2 × 10^−7 M, in SI).
Binding constants (log Ka) and stoichiometry of complexes were calculated from the fluorimetric data using non-linear least-square program SPECFIT [46], in the concentration range that corresponded to 20–80% complex formed.

poly(dAdT)2 (AT-DNA) = test: Thermal melting of AT-DNA; type: binding; settings: r [compound]/[nucleotide phosphate] = 0.1
Protocol: as §3
Binding abilities of 1–6 compounds were further explored by thermal melting experiments. […]

poly A–poly U (AU-RNA) = test: Fluorimetric titration with AU-RNA; type: binding
Protocol: as §2, with “(≥0.98). Furthermore, linear changes were evident with increasing DNA or RNA concentration in most titrations. The exceptions to this were titrations of cyanine 3 with GC-DNA and titrations of dye 5 with ds-DNA and ds-RNA where sufficient data points in the non-linear part of the curve allowed estimation of binding affinity (Ka values were of the order 10^5 mol^−1 dm^−3; Figures S16, S22 and S23 in SI). Titration data were collected at a high excess of polynucleotide binding sites (r[1–6]/[nucleotide phosphate] < 0.1; see Figures S9–S26 in SI) where each molecule can bind to a separate binding site. Binding affinities of dye-DNA/RNA complexes were calculated by non-linear fitting using the Scatchard equation [27, 33]. The fluorescence changes of dye 5 in the titration with AT-DNA were too small to obtain an accurate binding constant (Figure S21 in SI).” for “(≥0.98).”

| Structure (SMILES) | IC50 (MDA-MB-435S cells) | IC50 (HeLa cells) | logKa (L + G ⇆ LG, 1:1 complex) ([1]; Tel22, potassium phosphate buffer, pH = 7.0, I = 0.1 mol dm^−3, SPECFIT fit) | ∆Tm value (poly(dAdT)2 (AT-DNA)) | log Ka (poly A–poly U (AU-RNA); AU-RNA) | Ka (order of magnitude) (poly A–poly U (AU-RNA); ds-RNA (AU-RNA), sodium cacodylate buffer, pH 7.0, I = 0.05 mol dm^−3, Scatchard equation) | K (fit parameter of titration curve) (poly A–poly U (AU-RNA); poly A – poly U, pH=7.0, sodium cacodylate buffer, I = 0.05 mol dm-3) | log Ka (indicated by steeper slope of titration curves) ([1]; Tel22, K+ solution, no accurate fit possible) |
| --- | --- | --- | --- | --- | --- | --- | --- | --- |
| CN1/C(=C/c2[se]c3ccccc3[n+]2C)Sc2ccccc21 [Compound 3, 3-methyl-2-((3-methylbenzo[d]thiazol-2(3H)-ylidene)methyl)benzo[d][1,3]selenazol-3-ium methosulphate] | 0.987 ± 0.177 µM | 1.02 ± 0.672 µM | 6.88 ± 0.05 | – | – | – | – | – |
| C[n+]1c(/C=C2\Sc3ccccc3N2CCCS)[se]c2ccccc21 [Compound 5, 2-((3-(3-mercaptopropyl)benzo[d]thiazol-2(3H)-ylidene)methyl)-3-methylbenzo[d][1,3]selenazol-3-ium methosulphate] | 37.1 ± 3.02 µM | 27.9 ± 4.14 µM | – | 4 °C | 5 | ~10^5 mol^−1 dm^−3 | 133756.34591 ±30379564.80418 | ≥ 7 |
